Experimental findings from patent US11759455B2, “Substituted 1H-imidazo[4,5-b]pyridin-2(3H)-ones and their use as GLUN2B receptor modulators” (JANSSEN PHARMACEUTICA NV, priority 2016, dated 2023) are described below.

Where two headings read alike, the source gives them in different places. Some results are limits rather than exact numbers.

In this experiment the target is T1, human GluN1/GluN2B NMDA receptors (Homo sapiens, UniProt Q13224).
T1 construct: expressed in transfected cells
As to the kind of experiment: Cell-based calcium flux (FLIPR) assay on cloned human NR1/NR2B ion channels expressed in mammalian cells (standard and HTS buffer variants). (Calcium assays in cells follow changes in intracellular calcium, usually with a dye or a luminescent sensor.)

The mark [1] stands for this setting: standard assay buffer (0.5 mM MgCl2 dye loading; 137 mM NaCl, 4 mM KCl assay buffer), human GluN1/GluN2B cells, read-out: NR2B IC50 (μM) standard assay.
Setting [2] is: standard assay buffer (0.5 mM MgCl2 in dye loading buffer; 137 mM NaCl, 4 mM KCl in assay buffer), human GluN1/GluN2B, read-out: NR2B IC50 (μM) standard assay.
Where [3] appears, read: HTS assay buffer (1.5 mM MgCl2 in dye loading buffer; 150 mM NaCl, 3 mM KCl in assay buffer), human GluN1/GluN2B, read-out: NR2B IC50 (μM) HTS assay.
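Also: stable Tet-On inducible cell line, Ca2+ influx triggered by glutamate at about EC40 plus 10 µM glycine, fluorescent dye read-out over 5 min, normalized to control wells.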

T1 sequence (Q13224 27-1484, other chains not shown): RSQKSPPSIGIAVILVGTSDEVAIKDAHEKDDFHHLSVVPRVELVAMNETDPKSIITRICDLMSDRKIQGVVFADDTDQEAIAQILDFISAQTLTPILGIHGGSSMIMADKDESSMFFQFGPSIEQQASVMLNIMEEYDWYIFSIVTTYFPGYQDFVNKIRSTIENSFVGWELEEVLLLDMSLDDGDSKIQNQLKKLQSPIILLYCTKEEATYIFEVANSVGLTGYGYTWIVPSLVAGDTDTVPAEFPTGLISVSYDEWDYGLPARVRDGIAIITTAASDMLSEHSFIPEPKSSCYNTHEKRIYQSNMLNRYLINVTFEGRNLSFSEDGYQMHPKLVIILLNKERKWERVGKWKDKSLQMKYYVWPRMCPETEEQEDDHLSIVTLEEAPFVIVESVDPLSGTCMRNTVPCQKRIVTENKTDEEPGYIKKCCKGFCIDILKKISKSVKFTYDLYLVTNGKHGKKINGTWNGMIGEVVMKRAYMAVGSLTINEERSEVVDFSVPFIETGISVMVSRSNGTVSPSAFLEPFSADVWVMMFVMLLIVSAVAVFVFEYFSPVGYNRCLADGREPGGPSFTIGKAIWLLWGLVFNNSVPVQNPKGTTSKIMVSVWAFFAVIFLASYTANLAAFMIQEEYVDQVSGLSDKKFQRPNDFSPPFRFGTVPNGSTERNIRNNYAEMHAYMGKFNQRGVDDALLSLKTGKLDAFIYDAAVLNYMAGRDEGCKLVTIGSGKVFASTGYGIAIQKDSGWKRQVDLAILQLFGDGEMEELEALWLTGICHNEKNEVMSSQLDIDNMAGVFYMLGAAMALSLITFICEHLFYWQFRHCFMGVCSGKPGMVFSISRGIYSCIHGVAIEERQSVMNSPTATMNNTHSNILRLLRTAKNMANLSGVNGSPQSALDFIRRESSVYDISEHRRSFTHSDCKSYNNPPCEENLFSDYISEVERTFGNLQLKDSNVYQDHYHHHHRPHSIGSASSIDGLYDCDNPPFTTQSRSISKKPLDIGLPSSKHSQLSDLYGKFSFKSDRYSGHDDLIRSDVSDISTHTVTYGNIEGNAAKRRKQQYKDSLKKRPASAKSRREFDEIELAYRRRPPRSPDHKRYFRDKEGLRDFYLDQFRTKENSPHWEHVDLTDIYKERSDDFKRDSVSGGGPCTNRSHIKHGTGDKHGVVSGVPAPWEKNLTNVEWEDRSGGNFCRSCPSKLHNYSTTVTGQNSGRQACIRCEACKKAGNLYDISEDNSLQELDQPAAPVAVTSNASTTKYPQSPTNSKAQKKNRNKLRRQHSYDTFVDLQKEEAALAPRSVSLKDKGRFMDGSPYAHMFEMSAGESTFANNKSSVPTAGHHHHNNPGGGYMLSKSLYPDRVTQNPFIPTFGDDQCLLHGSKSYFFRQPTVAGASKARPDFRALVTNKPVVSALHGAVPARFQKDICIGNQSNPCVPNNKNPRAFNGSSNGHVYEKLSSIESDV

For orientation: IC50 means the concentration needed to halve the response being measured. For the molecule `Cc1cccnc1Cn1c(=O)[nH]c2ncc(-c3cccc(C(F)(F)F)c3)cc21` [Example 315, 1-[(3-Methyl-2-pyridyl)methyl]-6-[3-(trifluoromethyl)phenyl]-3H-imidazo[4,5-b]pyridin-2-one], the IC50 under setting [1] is more than 10 µM.

For `Cc1ccccc1-c1cnc2[nH]c(=O)n(CCN3CCC3)c2c1` [Example 152, 1-[2-(Azetidin-1-yl)ethyl]-6-(o-tolyl)-3H-imidazo[4,5-b]pyridin-2-one], the IC50 under setting [1] came out at 0.127 µM.

Consider `CCC(=O)Cn1c(=O)[nH]c2ncc(-c3ccc(F)c(F)c3)cc21` [Example 330, 6-(3,4-Difluorophenyl)-1-(2-oxobutyl)-3H-imidazo[4,5-b]pyridin-2-one], for which the IC50 under setting [2] was 0.004 µM.

Turning to `Cn1cc(Cn2c(=O)n(C)c3ncc(-c4ccc(C(F)(F)F)s4)cc32)nn1` [Example 566, 3-Methyl-1-[(1-methyltriazol-4-yl)methyl]-6-[5-(trifluoromethyl)-2-thienyl]imidazo[4,5-b]pyridin-2-one], the IC50 under setting [2] came to 0.349 µM.

In the case of `COc1ccc(-c2cnc3[nH]c(=O)n(Cc4cc(C)on4)c3c2)c(OC)c1` [Example 518, 6-(2,4-Dimethoxyphenyl)-1-[(5-methylisoxazol-3-yl)methyl]-3H-imidazo[4,5-b]pyridin-2-one], the IC50 under setting [2] came out at 0.808 µM.

Turning to `CCOc1cccc(-c2cnc3[nH]c(=O)n(CC(=O)c4cccs4)c3c2)c1` [Example 463, 6-(3-Ethoxyphenyl)-1-[2-oxo-2-(2-thienyl)ethyl]-3H-imidazo[4,5-b]pyridin-2-one], under setting [3], the IC50 came to 0.36 µM.

As for `COc1ccnc(Cn2c(=O)[nH]c3ncc(-c4ccc(C(C)(C)C)cc4)cc32)c1OC` [Example 512, 6-(4-tert-Butylphenyl)-1-[(3,4-dimethoxy-2-pyridyl)methyl]-3H-imidazo[4,5-b]pyridin-2-one], the IC50 under setting [3] was more than 29 µM.

Consider `Cn1c(=O)n(Cc2cccnc2)c2cc(-c3cccc(F)c3)cnc21` [Example 51, 6-(3-Fluorophenyl)-3-methyl-1-(3-pyridylmethyl)imidazo[4,5-b]pyridin-2-one], for which the IC50 under setting [1] came out at 22.6 µM.

`Cc1cccc(-c2cnc3[nH]c(=O)n(Cc4cccnc4)c3c2)c1` [Example 297, 6-(m-Tolyl)-1-(3-pyridylmethyl)-3H-imidazo[4,5-b]pyridin-2-one]: under setting [1], the IC50 was 0.027 µM.

As to `Cn1c(=O)n(Cc2cncc(F)c2)c2cc(-c3cc(F)c(F)c(F)c3)cnc21` [Example 344, 1-[(5-Fluoro-3-pyridyl)methyl]-3-methyl-6-(3,4,5-trifluorophenyl)imidazo[4,5-b]pyridin-2-one], the IC50 under setting [2] is 0.518 µM.

Take `CN(CCF)C(=O)Cn1c(=O)n(C)c2ncc(-c3ccc(C(F)(F)F)s3)cc21` [Example 577, N-(2-Fluoroethyl)-N-methyl-2-[3-methyl-2-oxo-6-[5-(trifluoromethyl)-2-thienyl]imidazo[4,5-b]pyridin-1-yl]acetamide]: the IC50 under setting [2] came out at 0.064 µM.

Regarding `Cc1nccc(Cn2c(=O)n(C)c3ncc(-c4cccc(C(F)(F)F)c4)cc32)n1` [Example 248, 3-Methyl-1-[(2-methylpyrimidin-4-yl)methyl]-6-[3-(trifluoromethyl)phenyl]imidazo[4,5-b]pyridin-2-one], the IC50 under setting [1] is 2.05 µM.

Regarding `COc1ccc(Cn2c(=O)[nH]c3ncc(-c4cccc(C(F)(F)F)c4)cc32)cn1` [Example 210, 1-[(6-Methoxy-3-pyridyl)methyl]-6-[3-(trifluoromethyl)phenyl]-3H-imidazo[4,5-b]pyridin-2-one], the IC50 under setting [1] was 1.62 µM.

For `Cc1noc(C)c1Cn1c(=O)[nH]c2ncc(-c3cccc(C#N)c3)cc21` [Example 513, 3-[1-[(3,5-Dimethylisoxazol-4-yl)methyl]-2-oxo-3H-imidazo[4,5-b]pyridin-6-yl]benzonitrile], the IC50 under setting [3] was more than 29 µM.

For `O=C(Cn1c(=O)[nH]c2ncc(-c3ccc(F)c(Cl)c3)cc21)NC1CC1` [Example 448, 2-[6-(3-Chloro-4-fluoro-phenyl)-2-oxo-3H-imidazo[4,5-b]pyridin-1-yl]-N-cyclopropyl-acetamide], the IC50 under setting [2] amounted to 0.008 µM.

`Cc1c(F)ccc(-c2cnc3c(c2)n(Cc2ccccn2)c(=O)n3C)c1F` [Example 68, 6-(2,4-Difluoro-3-methyl-phenyl)-3-methyl-1-(2-pyridylmethyl)imidazo[4,5-b]pyridin-2-one]: the IC50 under setting [1] stood at 0.31 µM.

Turning to `Cn1c(=O)n(Cc2cccnn2)c2cc(-c3cccc(C(F)F)c3)cnc21` [Example 377, 6-[3-(Difluoromethyl)phenyl]-3-methyl-1-(pyridazin-3-ylmethyl)imidazo[4,5-b]pyridin-2-one], under setting [2], the IC50 was determined as 0.03 µM.

`Cn1c(=O)n(CC(=O)N2CC(F)(F)C2)c2cc(-c3ccc(F)c(OC(F)F)c3)cnc21` [Example 590, 1-[2-(3,3-Difluoroazetidin-1-yl)-2-oxo-ethyl]-6-[3-(difluoromethoxy)-4-fluoro-phenyl]-3-methyl-imidazo[4,5-b]pyridin-2-one]: the IC50 under setting [2] was determined as 0.025 µM.

For the molecule `COc1cc(Cn2c(=O)[nH]c3ncc(-c4cccc(C(F)(F)F)c4)cc32)cc(OC)c1` [Example 510, 1-[(3,5-Dimethoxyphenyl)methyl]-6-[3-(trifluoromethyl)phenyl]-3H-imidazo[4,5-b]pyridin-2-one], the IC50 under setting [3] came out at 17.4 µM.

For `Cn1c(=O)n(CC(=O)O)c2cc(-c3cccc(C(F)(F)F)c3)cnc21` [Example 137, 2-[3-Methyl-2-oxo-6-[3-(trifluoromethyl)phenyl]imidazo[4,5-b]pyridin-1-yl]Acetic Acid], the IC50 under setting [1] is more than 10 µM.

Turning to `Cn1c(=O)n(Cc2cccnn2)c2cc(-c3ccc(Cl)c(OC(F)F)c3)cnc21` [Example 543, 6-[4-Chloro-3-(difluoromethoxy)phenyl]-3-methyl-1-(pyridazin-3-ylmethyl)imidazo[4,5-b]pyridin-2-one], the IC50 under setting [2] worked out at 0.028 µM.

As to `Cn1c(=O)n(Cc2ccncn2)c2cc(-c3cccc(C(F)(F)F)c3)cnc21` [Example 246, 3-Methyl-1-(pyrimidin-4-ylmethyl)-6-[3-(trifluoromethyl)phenyl]imidazo[4,5-b]pyridin-2-one], the IC50 under setting [1] turned out to be 0.349 µM.

`Cc1cc(-c2cnc3[nH]c(=O)n(Cc4cncc(F)c4)c3c2)ccc1F` [Example 299, 6-(4-Fluoro-3-methyl-phenyl)-1-[(5-fluoro-3-pyridyl)methyl]-3H-imidazo[4,5-b]pyridin-2-one]: the IC50 under setting [1] was determined as 0.019 µM.

Turning to `CCOc1ccccc1-c1cnc2[nH]c(=O)n(CC(=O)NC)c2c1` [Example 441, 2-[6-(2-Ethoxyphenyl)-2-oxo-3H-imidazo[4,5-b]pyridin-1-yl]-N-methyl-acetamide], the IC50 under setting [3] amounted to 2.44 µM.

Consider `Cc1cncc(Cn2c(=O)[nH]c3ncc(-c4cc(F)c(F)c(F)c4)cc32)c1` [Example 308, 1-[(5-Methyl-3-pyridyl)methyl]-6-(3,4,5-trifluorophenyl)-3H-imidazo[4,5-b]pyridin-2-one], for which the IC50 under setting [1] was found to be 0.03 µM.

`Cn1c(=O)n(Cc2cccnn2)c2cc(-c3cccc(C(F)(F)F)c3)cnc21` [Example 378, 3-Methyl-1-(pyridazin-3-ylmethyl)-6-[3-(trifluoromethyl)phenyl]imidazo[4,5-b]pyridin-2-one]: the IC50 under setting [2] worked out at 0.031 µM.

Turning to `Cc1cc(F)cc(-c2cnc3c(c2)n(Cc2cccnn2)c(=O)n3C)c1` [Example 381, 6-(3-Fluoro-5-methyl-phenyl)-3-methyl-1-(pyridazin-3-ylmethyl)imidazo[4,5-b]pyridin-2-one], the IC50 under setting [2] amounted to 0.037 µM.
